From patent US8980936B2, “Phenoxy-pyrrolidine derivative and its use and compositions” (Thesan Pharmaceuticals, Inc., priority 2007, dated 2015)

Tests used:
[1] = target: T1, stearoyl CoA desaturase (SCD1) (Rattus norvegicus, UniProt P07308); test: Rat microsomal assay: conversion of labeled stearoyl CoA to oleoyl CoA by LC/MS/MS; assay type: biochemical; conditions: rat liver microsomes; 40 μM substrate (2× Km); mean of N=3; read-out: IC50, inhibition of SCD1 activity (conversion of stearoyl CoA to oleoyl CoA)
T1 construct: Rat liver microsomes are allowed to react with stearoyl-coenzyme A labeled with D3; from tissue
T1 sequence (P07308 1-358): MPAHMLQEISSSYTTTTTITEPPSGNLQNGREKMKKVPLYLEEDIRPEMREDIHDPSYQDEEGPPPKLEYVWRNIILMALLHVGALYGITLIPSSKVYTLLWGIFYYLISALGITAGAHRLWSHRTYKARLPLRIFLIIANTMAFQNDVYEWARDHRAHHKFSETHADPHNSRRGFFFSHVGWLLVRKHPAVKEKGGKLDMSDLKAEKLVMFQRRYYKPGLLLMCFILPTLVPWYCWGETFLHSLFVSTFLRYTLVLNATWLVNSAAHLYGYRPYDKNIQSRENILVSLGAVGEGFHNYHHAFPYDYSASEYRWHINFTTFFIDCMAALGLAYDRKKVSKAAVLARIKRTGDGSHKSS
Method: As described below, the assay measures the conversion of labeled stearoyl CoA to oleoyl CoA using LC/MS/MS.
In order to increase SCD1 activity in rat liver microsomes, Sprague Dawley rats are fasted for 40 hours. Following fasting diet is replaced with free fatty acid deficient chow ad libitum for 48 hours. Rats are then euthanized using CO2 asphyxiation and their livers are removed. Livers are weighed, minced and placed in homogenization buffer ([…], 50 mM Tris-HCl, pH 7.5, 5 mM EDTA, 1.5 mM GSH) on ice. Microsomes are isolated by homogenization with a polytron and several centrifugation steps. Following final centrifugation, the resulting pellet is resuspended in homogenization buffer and protein concentration is determined. Aliquots are stored at −80° C. until use.
Rat liver microsomes are allowed to react with stearoyl-coenzyme A labeled with D3 in the presence of the compound of Formula I to test the compound's ability to inhibit the conversion of stearoyl-coenzyme A to oleoyl coenzyme A. The reaction is terminated using acetonitrile. Free fatty acids are extracted by saponification of the samples with 2M KOH at 70° C. […] Samples are reconstituted in 9:1 Methanol:Water, with 2 ug/ml heptadecanoic acid added as an internal standard, and analyzed by LC/MS/MS. The ability to inhibit the conversion of stearoyl CoA to oleoyl CoA is expressed as an IC50.

[2] = target: T2, SCD1 enzyme in intact human cells (Homo sapiens, UniProt O00767); test: Human adipocyte (AdipoRed) assay: production of triglycerides; assay type: cell-based; conditions: differentiated human subcutaneous adipocytes; 6 days compound treatment; mean of N=6; read-out: IC50, inhibition of the production of triglycerides
T2 construct: The cells were received as pre-adipocytes and then differentiated for 5 days in a 384 well format; host or cells: cryopreserved human subcutaneous preadipocytes, differentiated to adipocytes
T2 sequence (O00767 1-359): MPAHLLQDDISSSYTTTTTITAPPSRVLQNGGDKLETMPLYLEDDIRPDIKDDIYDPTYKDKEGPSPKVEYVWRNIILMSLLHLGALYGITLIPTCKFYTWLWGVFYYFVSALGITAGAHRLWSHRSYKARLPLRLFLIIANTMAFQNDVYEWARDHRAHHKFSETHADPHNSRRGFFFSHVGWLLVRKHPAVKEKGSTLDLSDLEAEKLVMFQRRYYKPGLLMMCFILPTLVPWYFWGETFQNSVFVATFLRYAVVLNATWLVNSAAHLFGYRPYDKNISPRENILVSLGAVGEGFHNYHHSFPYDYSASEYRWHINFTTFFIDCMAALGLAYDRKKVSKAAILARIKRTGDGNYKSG
Method: The role of SCD1 is believed to be similar in adipocytes and sebocytes. The ability of the compound to inhibit the SCD1 enzyme in intact human cells was determined using the Human AdipoRed assay as described below. The cells were received as pre-adipocytes and then differentiated for 5 days in a 384 well format. The compound is added at various concentrations for 6 days. The production of triglycerides was then assessed by a unique dye which specifically binds to secreted triglycerides. The ability to inhibit the production of triglycerides is expressed as an IC50.
Cryopreserved subcutaneous preadipocytes (Cat #: PT-5001 Supplier: Cambrex Bio Science) were briefly thawed in 37 C and spin down at 1000 rpm for 5 minutes. Preadipocyte are resuspended in 30 ml of Growth Media (GM, Cat #: PT-8202 Cambrex Bio Science) and are diluted to final concentration of 75,000 cells/ml. 40 μl of Cells are then plated into wells of 384-Well BD Falcon polystyrene assay plate at the density of 3,000 cells (40 μl) per well. […]
After 5 days' differentiation, cells were treated with 2 μl of the compound from 96-well compound plate in duplicate by Biomek FX. […] The accumulation of intracellular triglycerides is then quantified by measuring fluoresce at 572 nm on a SpectraMax M5 microplate reader.

male Syrian hamsters = test: Hamster ear model: inhibition of sebum production; assay type: in vivo, Syrian hamster
Text: The hamster ear model is a validated animal model for testing whether compounds are capable of modulating sebaceous gland function and sebum secretion. Luderschmidt et al, Arch. Derm. Res. 258, 185-191 (1977). This model uses male Syrian hamsters, whose ears contain sebaceous glands. The compound of the invention was screened in this model according to the procedure outlined below. In these studies, the hamsters are topically dosed twice daily (BID) for 2 weeks, 5 days a week (Monday to Friday). Each dose consisted of 25 μl of vehicle control or formulated test article, which was evenly applied to ˜3 cm^2 of the ventral surfaces of both the right and left ears. At sacrifice, skin punches are taken for lipid analysis, histology and skin concentrations of the test compound.
Male Syrian hamsters aged 9 to 10 weeks were introduced into the laboratory environment and acclimated for 2 weeks prior to use in the study. Each group consisted of 5 animals and run in parallel with vehicle and positive controls. […]
Animals were dosed topically twice daily, five days a week, for 2 weeks. Each dose consisted of 25 μl of vehicle control or drug. The dose was applied to the ventral surfaces of both the right and left ears. All animals were sacrificed approximately 18-24 hours after the final dose. The right ears were collected from each animal and used for sebum analysis.
The ears were prepped for HPLC analysis in the following manner. One 8 mm distal biopsy punch was taken, just above the anatomical “V” mark in the ear to normalize the sample area. The punch was pulled apart. The ventral biopsy surface (the area where the topical dose was directly applied to the sebaceous glands) was retained for testing and the dorsal surface of the biopsy punch was discarded.
Tissue samples were blown with N2 gas and stored at −80° C. under nitrogen until HPLC analysis. In addition to ear samples, an aliquot of each drug and vehicle (at least 250 μl) was also stored at −80° C. for inclusion in the HPLC analysis.
HPLC analysis was carried out on an extract of the tissue sample. Tissue samples were contacted with 3 ml of solvent (a 4:1 admixture of 2,2,4-trimethylpentane and isopropyl alcohol). The mixture was shaken for 15 minutes and stored overnight at room temperature, protected from light. The next morning 1 milliliter of water was added to the sample and shaken for 15 minutes. The sample was then centrifuged at approximately 1500 rpm for 15 minutes. Two ml of the organic phase (top layer) was transferred to a glass vial, dried at 37° C., under nitrogen, for approximately 1 hour, and then lyophilized for approximately 48 hours. The samples were then removed from the lyophilizer and each vial was reconstituted with 600 μl of solvent A (trimethylpentane/tetrahydrofuran (99:1). The samples were then recapped and vortexed for 5 minutes.
200 μl of each sample was then transferred to a pre-labeled 200 μl HPLC vial with 200 μL glass inserts. The HPLC vials were placed in the autosampler tray for the Agilent 1100 series HPLC unit. The Agilent 1100 HPLC system consisted of a thermostated autosampler, a quaternary pump, a column heater, and an A/D interface module. All components were controlled by Agilent ChemStation software. A Waters Spherisorb S3W […] analytical column was maintained at 30° C. by the Agilent column heater unit. The HPLC autosampler was programmed to maintain the sample temperature at 20° C. throughout the run.
10 μL of each sample was injected in triplicate into the column. Two solvents were used for the solvent gradient. Solvent A was an admixture of trimethylpentane and tetrahydrofuran (99:1). Solvent B was ethyl acetate. The gradient utilized is described in the table below: […]
The Sedex 75 Evaporative Light Scattering Detector (ELSD) was operated at 45° C. with a gain of 5, and N2 pressure maintained at 3.1 bar. Analog signal obtained by the instrument was sent to the Agilent A/D interface module where it was converted to a digital output. […]

sebum production = conditions: background statement, cited from earlier work
[3] = dose response experiment, formulated in propylene glycol:ethanol 30.70 (w/v), topical
[4] = dosed at 1.5% in propylene glycol/transcutanol/ethanol 20/20/60, topical BID, 2 weeks, hamster ear
[5] = two week topical BID application, propylene glycol:ethanol 30.70

With `O=C(COc1ccc(CO)cc1)N1CC[C@H](Oc2ccccc2C(F)(F)F)C1` [compound of Formula I, (S)-2-(4-(hydroxymethyl)phenoxy)-1-(3-(2-(trifluoromethyl)phenoxy)pyrroli-din-1-yl)ethanone] the IC50 [1] was 5.8 nM, the IC50 [2] was 6.8 nM and the “CE and WE production, dose response” value (male Syrian hamsters; [3]) was “dose dependent decrease of both CE and WE production”. The “sebaceous gland size and number, histology” value (male Syrian hamsters; [3]) was “Dose related changes in sebaceous gland size and number”, the “reduction in cholesterol ester (CE) compared to vehicle control” value (male Syrian hamsters; [4]) was 62% and the “reduction in wax ester (WE) compared to vehicle control” value (male Syrian hamsters; [4]) was 82%. For the same compound, the sebaceous gland size (male Syrian hamsters; [4]) was “reduction in sebaceous gland size”, the “ED50 based on WE reduction” value (male Syrian hamsters; [5]) was 0.3% and the “ED50 based on WE reduction, per area” value (male Syrian hamsters; [5]) was 0.025 mg/cm^2.
In the case of `CC1=C(/C=C/C(C)=C/C=C/C(C)=C\C(=O)O)C(C)(C)CCC1` [Isotretinoin], the “suppression of sebum production” value (sebum production) is given as “up to 90%”.
For `CCOC(=O)/C=C(C)/C=C/C=C(C)/C=C/c1c(C)cc(OC)c(C)c1C` [etretinate], the “effect on sebum synthesis” value (sebum production; Zouboulis 2004) is given as “do not reduce sebum synthesis”.
